Columns and labels:
Female Brown Norway rats [1] = experiment: Rat model for endometriosis, acute phase (4 day); format: in vivo; settings: rat 4 day endometriosis model, once daily p.o. 1, 5, 15, 60 mg/kg
Procedure: 4. Rat Model for Endometriosis, Acute Phase Female Brown Norway rats (Charles-River) were treated p.o. with Compound Example 3 (doses: 1 mg/kg, 5 mg/kg, 15 mg/kg, 60 mg/kg) or vehicle alone (10% DMSO+90% phosphate buffered saline (PBS)). 2 h later all animals got under deep anesthesia a transplantation of 6 uterus pieces in the peritoneal cavity. The tissue was obtained from donor animals which were pre-treated with 3 μg s.c. Estradiol (E2) for 2 days to guarantee standardized conditions of the uterus tissue. The animals were treated once daily p.o. with Compound Example 3 (doses: 1 mg/kg, 5 mg/kg, 15 mg/kg, 60 mg/kg) or vehicle alone (10% DMSO+90% phosphate buffered saline (PBS). 4 days later the animals were sacrificed and the transplants as surrogate endometriosis lesion tissue were analyzed for markers of lesion activity (inflammatory cytokines and proliferation marker). This approach is mimicking the early inflammatory phase of endometriosis close to menstruation. Analysis For RNA expression analysis the lesions, were excised. RNA was isolated after homogenization of tissues in guanidinium thiocyanate using the RNeasy mini Kit (Qiagen) with DNase digestion. […] Relative mRNA levels were calculated using the comparative CT method using the RQ-Manager software (Applied Biosystems). […]

Female Brown Norway rats [2] = experiment: Rat model for endometriosis, late phase (15 day); format: in vivo; settings: rat 15 day endometriosis model, once daily p.o. 5, 30, 60 mg/kg; FIG. 5-6
Procedure: 5. Rat Model for Endometriosis, Late Phase Female Brown Norway rats (Charles-River) were treated with Compound Example 3 (doses: 5 mg/kg, 30 mg/kg, 60 mg/kg) or vehicle alone (10% DMSO+90% phosphate buffered saline (PBS). 2 h later all animals got under deep anesthesia a transplantation of 6 uterus pieces in the peritoneal cavity. The tissue was obtained from donor animals which were pre-treated with 3 μg s.c. Estradiol for 2 days to guarantee standardized conditions of the uterus tissue. The animals were treated once daily p.o. with Compound Example 3 (doses: 5 mg/kg, 30 mg/kg, 60 mg/kg) or respective vehicle (10% DMSO+90% phosphate buffered saline (PBS). 15 days later the animals were sacrificed and the transplants as surrogate endometriosis lesion tissue were analyzed for markers of lesion activity (inflammatory cytokines). This approach is mimicking the long term effect on established inflammation in endometriosis. Analysis For ex vivo cytokine analysis, animals were sacrificed and tissues (endometriosis lesions) were frozen at −80° C. […] After centrifugation at 13.000 U/min (Eppendorf) supernatants were analyzed for cytokine levels using Bio-Plex Pro™ Rat Cytokine 24-plex (Bio Rad Assay #171K1001M) or the Bio-Plex Pro™ Mouse Cytokine 23-Plex (Bio Rad Assay #M600009RDPD) according to the manufacturer's protocols.

O=C(O)c1cc(NC(=O)C2(c3ccc(C(F)(F)F)cc3F)CC2)ccc1-c1cnn(C2CCC2)c1 [Example 3, 2-(1-Cyclobutyl-1H-pyrazol-4-yl)-5-[({1-[2-fluoro-4-(trifluoromethyl)phenyl]cyclopropyl}carbonyl)amino]benzoic acid]
decreased: expression of proliferation marker (PCNA) in lesions (Female Brown Norway rats [1]; FIG. 1) | expression of inflammatory cytokines in lesions (TNF alpha, IL-1 beta, IL-6) (Female Brown Norway rats [1]; FIG. 2-4) | expression of inflammatory cytokines in the lesions (IL-1 alpha, IL-1 beta) (Female Brown Norway rats [2])
